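All cell lines were grown in 96-well plates and treated with compound for 48 hours. GI50: concentration for 50% inhibition of growth.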 Active and inactive are the calls of the source. No stated cut-off is given here; in the data, active = GI50 up to about 1.1 µM and inactive = higher.
Columns and labels:
Test in all cases: NCI anticancer screen, dose series, 48 h
[1] = tested on: 786-0
[2] = tested on: A549
[3] = tested on: TK-10
[4] = tested on: SK-MEL-28
[5] = tested on: HCT-116
[6] = tested on: Hs-578T
[7] = tested on: CCRF-CEM
[8] = tested on: NCI-H460
[9] = tested on: SK-MEL-5
[10] = tested on: HCC 2998
[11] = tested on: SF-268
[12] = tested on: NCI-H522
[13] = tested on: CAKI-1
[14] = tested on: HOP-92
[15] = tested on: U-251
[16] = tested on: SNB-19
[17] = tested on: MDA-N
[18] = tested on: COLO 205
[19] = tested on: DU-145
[20] = tested on: BT-549
[21] = tested on: MDA-MB-435
[22] = tested on: IGROV-1
[23] = tested on: SW-620
[24] = tested on: A498
[25] = tested on: T47D
[26] = tested on: NCI-H226
[27] = tested on: HL-60
[28] = tested on: PC-3
[29] = tested on: OVCAR-8
[30] = tested on: SR
[31] = tested on: HT-29
[32] = tested on: Malme-3M
[33] = tested on: NCI/ADR-RES
[34] = tested on: SNB-75
[35] = tested on: SN12C
[36] = tested on: LOX IMVI
[37] = tested on: KM12
[38] = tested on: MDA-MB-231
[39] = tested on: UO-31
[40] = tested on: UACC-257
[41] = tested on: ACHN
[42] = tested on: OVCAR-4
[43] = tested on: UACC-62
[44] = tested on: HCT-15
[45] = tested on: SK-MEL-2
[46] = tested on: NCI-H23
[47] = tested on: OVCAR-3
[48] = tested on: SF-539
[49] = tested on: MOLT-4
[50] = tested on: SK-OV-3
[51] = tested on: SF-295
[52] = tested on: MCF7
[53] = tested on: M14
[54] = tested on: HOP-62
[55] = tested on: OVCAR-5
[56] = tested on: EKVX
[57] = tested on: RXF 393
[58] = tested on: K562

For `Cc1ccc2c(c1)-c1nc(N)c(C#N)c(-c3ccc(Cl)cc3)c1CCS2(=O)=O`, the GI50 [1] was 40.6 µM (inactive), the GI50 [2] was 34.8 µM (inactive) and the GI50 [3] was 66.4 µM (inactive). The GI50 [4] was 48.9 µM (inactive), the GI50 [5] was 33 µM (inactive) and the GI50 [6] was 43 µM (inactive). For the same molecule, the GI50 [7] was 20.7 µM (inactive), the GI50 [8] was 35.2 µM (inactive) and the GI50 [9] was 18.2 µM (inactive). The GI50 [10] was 64.3 µM (inactive), the GI50 [11] was 67.6 µM (inactive) and the GI50 [12] was 29.8 µM (inactive). The GI50 [13] was 38.5 µM (inactive), the GI50 [14] was 36.1 µM (inactive) and the GI50 [15] was 40 µM (inactive). For the same molecule, the GI50 [16] was 50.6 µM (inactive), the GI50 [17] was 39.3 µM (inactive) and the GI50 [18] was 24.7 µM (inactive). The GI50 [19] was 53.8 µM (inactive), the GI50 [20] was 49 µM (inactive) and the GI50 [21] was 31.3 µM (inactive). For the same molecule, the GI50 [22] was 43.1 µM (inactive), the GI50 [23] was 46 µM (inactive) and the GI50 [24] was 24.6 µM (inactive). The GI50 [25] was 33.2 µM (inactive), the GI50 [26] was 28.4 µM (inactive) and the GI50 [27] was 17.7 µM (inactive). For the same molecule, the GI50 [28] was 26.8 µM (inactive), the GI50 [29] was 32 µM (inactive) and the GI50 [30] was 24.5 µM (inactive). For the same molecule, the GI50 [31] was 21.4 µM (inactive), the GI50 [32] was 44.6 µM (inactive) and the GI50 [33] was 36.2 µM (inactive). The GI50 [34] was 49 µM (inactive), the GI50 [35] was 55.7 µM (inactive) and the GI50 [36] was 35.8 µM (inactive). For the same molecule, the GI50 [37] was 33.3 µM (inactive), the GI50 [38] was 27.1 µM (inactive) and the GI50 [39] was 20 µM (inactive). For the same molecule, the GI50 [40] was 45.6 µM (inactive), the GI50 [41] was 44.6 µM (inactive) and the GI50 [42] was 52 µM (inactive). The GI50 [43] was 28.2 µM (inactive), the GI50 [44] was 43.2 µM and the GI50 [45] was 22.5 µM (inactive). For the same molecule, the GI50 [46] was 39.4 µM (inactive).

With `CC(C)(C)[Si](C)(C)OCc1cccc(OCCOc2cccc(CO[Si](C)(C)C(C)(C)C)c2[N+](=O)[O-])c1[N+](=O)[O-]` the GI50 [1] was > 100 µM (inactive), the GI50 [2] was > 100 µM (inactive) and the GI50 [3] was > 100 µM (inactive). For the same molecule, the GI50 [4] was > 100 µM (inactive), the GI50 [47] was > 100 µM (inactive) and the GI50 [5] was > 100 µM (inactive). For the same molecule, the GI50 [6] was > 100 µM (inactive), the GI50 [7] was > 100 µM (inactive) and the GI50 [8] was > 100 µM (inactive). The GI50 [9] was > 100 µM (inactive), the GI50 [48] was > 100 µM (inactive) and the GI50 [49] was > 100 µM (inactive). The GI50 [50] was > 100 µM (inactive), the GI50 [11] was > 100 µM (inactive) and the GI50 [12] was > 100 µM (inactive). For the same molecule, the GI50 [13] was > 100 µM (inactive), the GI50 [14] was > 100 µM (inactive) and the GI50 [15] was > 100 µM (inactive). The GI50 [16] was > 100 µM (inactive), the GI50 [17] was > 100 µM (inactive) and the GI50 [18] was > 100 µM (inactive). The GI50 [51] was > 100 µM (inactive), the GI50 [19] was > 100 µM (inactive) and the GI50 [52] was > 100 µM (inactive). The GI50 [20] was > 100 µM (inactive), the GI50 [21] was > 100 µM (inactive) and the GI50 [22] was > 100 µM (inactive). For the same molecule, the GI50 [23] was > 100 µM (inactive), the GI50 [24] was > 100 µM (inactive) and the GI50 [25] was > 100 µM (inactive). The GI50 [26] was > 100 µM (inactive), the GI50 [53] was > 100 µM (inactive) and the GI50 [27] was > 100 µM (inactive). The GI50 [54] was > 100 µM (inactive), the GI50 [28] was > 100 µM (inactive) and the GI50 [29] was > 100 µM (inactive). For the same molecule, the GI50 [30] was 66.2 µM (inactive), the GI50 [31] was > 100 µM (inactive) and the GI50 [32] was > 100 µM (inactive). For the same molecule, the GI50 [33] was > 100 µM (inactive), the GI50 [34] was > 100 µM (inactive) and the GI50 [55] was > 100 µM (inactive). For the same molecule, the GI50 [56] was > 100 µM (inactive), the GI50 [35] was > 100 µM (inactive) and the GI50 [57] was > 100 µM (inactive). For the same molecule, the GI50 [36] was > 100 µM (inactive), the GI50 [37] was > 100 µM (inactive) and the GI50 [39] was > 100 µM (inactive). The GI50 [40] was > 100 µM (inactive), the GI50 [41] was > 100 µM (inactive) and the GI50 [42] was > 100 µM (inactive). The GI50 [43] was > 100 µM (inactive), the GI50 [44] was greater than 100 µM and the GI50 [45] was > 100 µM (inactive). The GI50 [46] was > 100 µM (inactive).

`O[C@H]1[C@H](O)[C@@H](O)[C@@]2(O)CC[C@@H]1N2` was tested, and the GI50 [1] was > 100 µM (inactive), the GI50 [2] was > 100 µM (inactive) and the GI50 [3] was > 100 µM (inactive). For the same molecule, the GI50 [4] was > 100 µM (inactive), the GI50 [47] was > 100 µM (inactive) and the GI50 [5] was > 100 µM (inactive). The GI50 [6] was > 100 µM (inactive), the GI50 [7] was > 100 µM (inactive) and the GI50 [8] was > 100 µM (inactive). The GI50 [9] was > 100 µM (inactive), the GI50 [10] was > 100 µM (inactive) and the GI50 [48] was > 100 µM (inactive). The GI50 [58] was > 100 µM (inactive), the GI50 [49] was > 100 µM (inactive) and the GI50 [50] was > 100 µM (inactive). The GI50 [11] was > 100 µM (inactive), the GI50 [12] was > 100 µM (inactive) and the GI50 [13] was > 100 µM (inactive). The GI50 [14] was > 100 µM (inactive), the GI50 [15] was > 100 µM (inactive) and the GI50 [16] was > 100 µM (inactive). The GI50 [17] was > 100 µM (inactive), the GI50 [18] was > 100 µM (inactive) and the GI50 [51] was > 100 µM (inactive). For the same molecule, the GI50 [19] was > 100 µM (inactive), the GI50 [52] was > 100 µM (inactive) and the GI50 [20] was > 100 µM (inactive). The GI50 [21] was > 100 µM (inactive), the GI50 [22] was > 100 µM (inactive) and the GI50 [23] was > 100 µM (inactive). For the same molecule, the GI50 [24] was > 100 µM (inactive), the GI50 [25] was > 100 µM (inactive) and the GI50 [26] was > 100 µM (inactive). For the same molecule, the GI50 [53] was > 100 µM (inactive), the GI50 [54] was > 100 µM (inactive) and the GI50 [28] was > 100 µM (inactive). For the same molecule, the GI50 [29] was > 100 µM (inactive), the GI50 [31] was > 100 µM (inactive) and the GI50 [32] was > 100 µM (inactive). For the same molecule, the GI50 [33] was > 100 µM (inactive), the GI50 [34] was > 100 µM (inactive) and the GI50 [55] was > 100 µM (inactive). For the same molecule, the GI50 [56] was > 100 µM (inactive), the GI50 [35] was > 100 µM (inactive) and the GI50 [57] was > 100 µM (inactive). For the same molecule, the GI50 [36] was > 100 µM (inactive), the GI50 [37] was > 100 µM (inactive) and the GI50 [38] was > 100 µM (inactive). The GI50 [39] was > 100 µM (inactive), the GI50 [40] was > 100 µM (inactive) and the GI50 [41] was > 100 µM (inactive). The GI50 [42] was > 100 µM (inactive), the GI50 [43] was > 100 µM (inactive) and the GI50 [44] was greater than 100 µM. The GI50 [45] was > 100 µM (inactive) and the GI50 [46] was > 100 µM (inactive).
